Laboratory results published in PubChem BioAssay (NCI).
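These data come from cells grown in 96-well plates and exposed to compound for 48 hours at five concentrations. GI50 marks 50% less growth. At the TGI there is no net growth.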

Tests used:
Assay in all cases: NCI tumour cell line growth inhibition, 48 h
NCI/ADR-RES ovarian = tested on: NCI/ADR-RES ovarian
SK-OV-3 ovarian = tested on: SK-OV-3 ovarian
SF-539 CNS = tested on: SF-539 CNS
KM12 colon = tested on: KM12 colon
HCT-15 colon = tested on: HCT-15 colon
UO-31 renal = tested on: UO-31 renal
TK-10 renal = tested on: TK-10 renal
NCI-H460 lung = tested on: NCI-H460 lung
786-0 renal = tested on: 786-0 renal
OVCAR-5 ovarian = tested on: OVCAR-5 ovarian

CCNc1ccc2c(c1)C(=O)N(OS(C)(=O)=O)C2=O
TGI (NCI/ADR-RES ovarian): > 100 µM | TGI (SK-OV-3 ovarian): > 100 µM | TGI (SF-539 CNS): 51.5 µM | TGI (KM12 colon): > 100 µM | TGI (HCT-15 colon): > 100 µM | TGI (UO-31 renal): > 100 µM | TGI (TK-10 renal): > 100 µM | TGI (NCI-H460 lung): > 100 µM | TGI (786-0 renal): > 100 µM

CCOc1ccc2cc(-c3nn(CC4CCN(C)CC4)c4ncnc(N)c34)ccc2c1
GI50 (NCI/ADR-RES ovarian): 14.7 µM | TGI (NCI/ADR-RES ovarian): 28.2 µM | GI50 (OVCAR-5 ovarian): 14.4 µM | TGI (OVCAR-5 ovarian): 32.2 µM | GI50 (SK-OV-3 ovarian): 11.2 µM | TGI (SK-OV-3 ovarian): 36.1 µM | GI50 (SF-539 CNS): 14.1 µM | TGI (SF-539 CNS): 27.2 µM | GI50 (KM12 colon): 18 µM | TGI (KM12 colon): 45.2 µM | GI50 (HCT-15 colon): 12.3 µM | TGI (HCT-15 colon): 30.9 µM | GI50 (UO-31 renal): 4.2 µM | TGI (UO-31 renal): 19.5 µM | GI50 (TK-10 renal): 14.4 µM | TGI (TK-10 renal): 34.3 µM | GI50 (NCI-H460 lung): 16.7 µM | TGI (NCI-H460 lung): 33.7 µM | GI50 (786-0 renal): 14.5 µM | TGI (786-0 renal): 29.7 µM

Cc1cc(C)nc(NC(=O)COc2ccc(Cl)cc2)c1
TGI (NCI/ADR-RES ovarian): > 100 µM | TGI (OVCAR-5 ovarian): > 100 µM | TGI (SK-OV-3 ovarian): > 100 µM | TGI (SF-539 CNS): > 100 µM | TGI (KM12 colon): > 100 µM | TGI (HCT-15 colon): > 100 µM | TGI (TK-10 renal): > 100 µM | TGI (NCI-H460 lung): > 100 µM | TGI (786-0 renal): > 100 µM

CN(CCOc1ccc(NS(C)(=O)=O)cc1)CCc1ccc(NS(C)(=O)=O)cc1
GI50 (NCI/ADR-RES ovarian): > 100 µM | TGI (NCI/ADR-RES ovarian): > 100 µM | GI50 (OVCAR-5 ovarian): > 100 µM | TGI (OVCAR-5 ovarian): > 100 µM | GI50 (SF-539 CNS): > 100 µM | TGI (SF-539 CNS): > 100 µM | GI50 (KM12 colon): > 100 µM | TGI (KM12 colon): > 100 µM | GI50 (HCT-15 colon): > 100 µM | TGI (HCT-15 colon): > 100 µM | GI50 (UO-31 renal): > 100 µM | TGI (UO-31 renal): > 100 µM | GI50 (TK-10 renal): > 100 µM | TGI (TK-10 renal): > 100 µM | GI50 (NCI-H460 lung): > 100 µM | TGI (NCI-H460 lung): > 100 µM | GI50 (786-0 renal): > 100 µM | TGI (786-0 renal): > 100 µM

OC[C@H]1N[C@H](CO)[C@@H](O)[C@H]1O
TGI (NCI/ADR-RES ovarian): > 100 µM | TGI (OVCAR-5 ovarian): > 100 µM | TGI (SK-OV-3 ovarian): > 100 µM | TGI (SF-539 CNS): > 100 µM | TGI (KM12 colon): > 100 µM | TGI (HCT-15 colon): > 100 µM | TGI (UO-31 renal): > 100 µM | TGI (TK-10 renal): > 100 µM | TGI (786-0 renal): > 100 µM

COc1ccc(C2=NNC(c3sc(Cl)nc3Cl)C2)cc1 (centres undefined)
GI50 (NCI/ADR-RES ovarian): 10.2 µM | TGI (NCI/ADR-RES ovarian): > 100 µM | GI50 (OVCAR-5 ovarian): 9.21 µM | TGI (OVCAR-5 ovarian): 26.4 µM | GI50 (SK-OV-3 ovarian): 13.2 µM | TGI (SK-OV-3 ovarian): 51.4 µM | GI50 (SF-539 CNS): 4.58 µM | TGI (SF-539 CNS): 32 µM | GI50 (KM12 colon): 5.56 µM | TGI (KM12 colon): 19.8 µM | GI50 (HCT-15 colon): 3.78 µM | TGI (HCT-15 colon): 19.3 µM | GI50 (UO-31 renal): 6.62 µM | TGI (UO-31 renal): 20.3 µM | GI50 (NCI-H460 lung): 24.3 µM | TGI (NCI-H460 lung): 75.1 µM | GI50 (786-0 renal): 4.06 µM | TGI (786-0 renal): > 100 µM

O=C(O)CCN1C(=S)CSC1=S
TGI (NCI/ADR-RES ovarian): > 100 µM | TGI (OVCAR-5 ovarian): > 100 µM | TGI (SK-OV-3 ovarian): > 100 µM | TGI (SF-539 CNS): > 100 µM | TGI (KM12 colon): > 100 µM | TGI (HCT-15 colon): > 100 µM | TGI (TK-10 renal): > 100 µM | TGI (NCI-H460 lung): > 100 µM | TGI (786-0 renal): > 100 µM

COc1ccc(CN2c3ccccc3Sc3ccccc32)cc1O
GI50 (NCI/ADR-RES ovarian): 0.291 µM | TGI (NCI/ADR-RES ovarian): 0.863 µM | GI50 (OVCAR-5 ovarian): 12.7 µM | TGI (OVCAR-5 ovarian): 36 µM | GI50 (SK-OV-3 ovarian): 0.521 µM | TGI (SK-OV-3 ovarian): 16.4 µM | GI50 (SF-539 CNS): 0.27 µM | TGI (SF-539 CNS): 0.823 µM | GI50 (HCT-15 colon): 0.369 µM | TGI (HCT-15 colon): 11.8 µM | GI50 (UO-31 renal): 0.751 µM | TGI (UO-31 renal): 18.9 µM | GI50 (TK-10 renal): 2.52 µM | TGI (TK-10 renal): 20.5 µM | GI50 (NCI-H460 lung): 0.444 µM | TGI (NCI-H460 lung): 13.4 µM | GI50 (786-0 renal): 0.838 µM | TGI (786-0 renal): 21.5 µM

Cc1nc(Nc2ccc(Cl)cc2)sc1C(=O)Nc1cccc2c(=O)[nH][nH]c(=O)c12
TGI (OVCAR-5 ovarian): > 100 µM | TGI (SK-OV-3 ovarian): > 100 µM | TGI (SF-539 CNS): > 100 µM | TGI (KM12 colon): > 100 µM | TGI (HCT-15 colon): 71.3 µM | TGI (UO-31 renal): > 100 µM | TGI (TK-10 renal): > 100 µM | TGI (NCI-H460 lung): 88.6 µM | TGI (786-0 renal): 47.9 µM

COC(OC)c1cccnc1C
TGI (OVCAR-5 ovarian): > 100 µM | TGI (SK-OV-3 ovarian): > 100 µM | TGI (SF-539 CNS): > 100 µM | TGI (KM12 colon): > 100 µM | TGI (HCT-15 colon): > 100 µM | TGI (UO-31 renal): > 100 µM | TGI (TK-10 renal): > 100 µM | TGI (NCI-H460 lung): > 100 µM | TGI (786-0 renal): > 100 µM

Nc1ccccc1SC(/C=C/NNC1=NC(c2ccccc2)C(c2ccccc2)=NN1)c1ccccc1 (centres undefined)
TGI (OVCAR-5 ovarian): 37.1 µM | TGI (SK-OV-3 ovarian): 44.4 µM | TGI (SF-539 CNS): 25.9 µM | TGI (KM12 colon): 29.1 µM | TGI (HCT-15 colon): 32 µM | TGI (UO-31 renal): 18.4 µM | TGI (TK-10 renal): 33.3 µM | TGI (NCI-H460 lung): 51.9 µM | TGI (786-0 renal): 25 µM

O=C(OCC1=CC(=O)c2ccccc2C1=O)c1ccccc1
GI50 (NCI/ADR-RES ovarian): 21.7 µM | TGI (NCI/ADR-RES ovarian): 60.1 µM | GI50 (OVCAR-5 ovarian): 24.1 µM | TGI (OVCAR-5 ovarian): 41.1 µM | GI50 (SF-539 CNS): 12.2 µM | TGI (SF-539 CNS): 25.3 µM | GI50 (KM12 colon): 11.6 µM | TGI (KM12 colon): 24.7 µM | GI50 (HCT-15 colon): 10.6 µM | TGI (HCT-15 colon): 29.5 µM | GI50 (UO-31 renal): 15.6 µM | TGI (UO-31 renal): 29.1 µM | GI50 (TK-10 renal): 15.9 µM | TGI (TK-10 renal): 29.6 µM | GI50 (NCI-H460 lung): 1.99 µM | TGI (NCI-H460 lung): 6.19 µM | GI50 (786-0 renal): 18.9 µM | TGI (786-0 renal): 33.8 µM

BrCc1ccc2ccc3ccc(CBr)nc3c2n1
TGI (NCI/ADR-RES ovarian): 5.15 µM | TGI (OVCAR-5 ovarian): 27.1 µM | TGI (SF-539 CNS): 11 µM | TGI (KM12 colon): 14.7 µM | TGI (HCT-15 colon): 4.18 µM | TGI (UO-31 renal): 4.57 µM | TGI (TK-10 renal): 5.72 µM | TGI (NCI-H460 lung): 20.2 µM | TGI (786-0 renal): 7.58 µM
